Like-named read-outs stand apart in the source and are kept apart here. Non-standard residues stand in square brackets, D forms with d. Residues, ends and D or L forms follow the SMILES beside them. Cha = N[C@@H](CC1CCCCC1)C(=O)O
Legend:
[1] = tested on: SARS-CoV 3CLpro; type: biochemical
[2] = target: SARS-CoV-2 3CLpro (Severe acute respiratory syndrome coronavirus 2, UniProt P0DTD1); details: SARS-CoV pIC50 multiplied by similarity index (SI), training set compounds
[3] = tested on: SARS-CoV 3CLpro; details: SARS-CoV 3CLpro inhibitors (training set), ref: per compound, cited from earlier work; for pIC50: from literature IC50; for IC50: literature values
[4] = activity class by pIC50 threshold 6

SMILES | Inact.(<6)/Act.(>=6) [1, 4] | also measured
CC(C)(C)NC(=O)C(c1cccnc1)N(C(=O)c1cccs1)c1ccc(C(C)(C)C)cc1 (centres unmarked) [CMP189] | Inact. (Inact.(<6)) | SI*pIC50 [2]: 4.453
C=C[C@@]1(C)CC[C@H]2C(=CC[C@@H]3[C@]2(C)CCC[C@@]3(C)C(=O)O)C1 [CMP133] | Inact. (Inact.(<6)) | SI*pIC50 [2]: 3.699; pIC50 [3]: 3.547; IC50 [3]: 284 µM
O=C1C=CC(=O)c2cn(Cc3ccccc3)cc21 [CMP111] | Inact. (Inact.(<6)) | SI*pIC50 [2]: 5.307; pIC50 [3]: 5.1549; IC50 [3]: 7 µM
C=CCSc1ccccc1NC(=O)/C=C/c1ccccc1 [CMP106] | Inact. (Inact.(<6)) | SI*pIC50 [2]: 4.857; pIC50 [3]: 4.706; IC50 [3]: 19.7 µM
C=C(N[C@@H](CC(C)C)C(=O)N[C@@H](CC1CCNC1=O)C(=O)Cn1[nH]c(=O)c2c([N+](=O)[O-])cccc2c1=O)[C@@H](NC(=O)[C@H](C)NC(=O)O)[C@@H](C)OCc1ccccc1 (some centres unmarked) [CMP101] | Act. (Act.(>=6)) | SI*pIC50 [2]: 6.374; pIC50 [3]: 6.222; IC50 [3]: 0.6 µM
O=C(Oc1ccc(S(=O)(=O)c2ccc(OC(=O)C(Cl)=C(Cl)Cl)cc2)cc1)C(Cl)=C(Cl)Cl [CMP137] | Act. (Act.(>=6)) | SI*pIC50 [2]: 6.198; pIC50 [3]: 6.046; IC50 [3]: 0.9 µM
COc1ccc(-c2cc(=O)c3c(O)cc(O)c(-c4cc(-c5cc(=O)c6c(O)cc(OC)cc6o5)ccc4OC)c3o2)cc1 [CMP155] | Inact. (Inact.(<6)) | SI*pIC50 [2]: 4.568; pIC50 [3]: 4.416; IC50 [3]: 38.4 µM
O=C1Nc2ccc(S(=O)(=O)N3CCCCC3)cc2C1=O [CMP145] | Inact. (Inact.(<6)) | SI*pIC50 [2]: 5.503; pIC50 [3]: 5.352; IC50 [3]: 4.45 µM
O=c1[nH]c2cc(Cl)cc(Cl)c2c(O)c1Sc1nnnn1-c1ccc(O)cc1 [CMP110] | Inact. (Inact.(<6)) | SI*pIC50 [2]: 5.127; pIC50 [3]: 4.975; IC50 [3]: 10.6 µM
CC(C)C[C@H](NC(=O)[C@@H](NC(=O)OCc1ccccc1)C(C)C)C(=O)N[C@@H](C[C@@H]1CCNC1=O)C(=O)c1nccs1 [CMP183] | Inact. (Inact.(<6)) | SI*pIC50 [2]: 5.174; pIC50 [3]: 5.022; IC50 [3]: 9.5 µM
O=c1cc(-c2ccc(O)cc2)oc2cc(O)cc(O)c12 [CMP152] | Inact. (Inact.(<6)) | SI*pIC50 [2]: 3.704; pIC50 [3]: 3.552; IC50 [3]: 281 µM
O=C1C(=O)N(C/C=C/c2cc3ccccc3s2)c2ccc(I)cc21 [CMP98] | – | SI*pIC50 [2]: 4.781
CC(C)C[C@H](NC(=O)[C@@H](NC(=O)[C@H](C)NC(=O)OC(C)(C)C)C(C)C)C(=O)N[C@H](C#N)CCC(N)=O [CMP229] | Inact. (Inact.(<6)) | –
CNc1ccc(N(Cc2ccsc2)C(=O)Cn2nnc3ccccc32)cc1 [CMP223] | Inact. (Inact.(<6)) | –
O=C(Oc1cncc(Cl)c1)c1ccc(-c2ccccc2[N+](=O)[O-])o1 [CMP281] | Act. (Act.(>=6)) | –
O=C[C@H](Cc1cnc[nH]1)NC[C@H]1C[C@@H]2CCCC[C@H]2CN1C(=O)c1ccc(-c2ccccc2)cc1 [CMP257] | Inact. (Inact.(<6)) | –
CN1CCN(S(=O)(=O)c2ccc3c(c2)C(=O)C(=O)N3Cc2ccc3ccccc3c2)CC1 [CMP243] | Inact. (Inact.(<6)) | –
COc1ncccc1-c1ccc(N(Cc2ccsc2)C(=O)Cn2nnc3ccccc32)cc1 [CMP225] | Act. (Act.(>=6)) | –
CC(C)(C)NC(=O)C(c1ccncc1)N(C(=O)c1ccco1)c1ccc(C(C)(C)C)cc1 (centres unmarked) [CMP205] | Inact. (Inact.(<6)) | –
O=C(Cn1nnc2ccccc21)N(Cc1ccsc1)c1ccc(-c2cccnc2)cc1 [CMP224] | Act. (Act.(>=6)) | –
CC(=O)N[C@@H](C)C(=O)N[C@H](C(=O)N[C@@H](CC1CCCCC1)C(=O)N[C@H](C=O)Cc1c[nH]cn1)C(C)C [CMP219] (Ac-AV[Cha]H-aldehyde) | Act. (Act.(>=6)) | –
CC(=O)Nc1cnc(SSc2ccccc2[N+](=O)[O-])s1 [CMP271] | Inact. (Inact.(<6)) | –
CC1CC(C)CN(S(=O)(=O)c2ccc3c(c2)C(=O)C(=O)N3Cc2ccccc2)C1 (centres unmarked) [CMP251] | Inact. (Inact.(<6)) | –
Cc1cc(C(=O)N[C@@H](C)C(=O)N[C@H](C(=O)N[C@@H](CC(C)C)C(=O)N[C@H](C#N)CCC(N)=O)C(C)C)no1 [CMP228] | Inact. (Inact.(<6)) | –
O=C1Nc2ccc(S(=O)(=O)N3CCN(Cc4cccc(Cl)c4)CC3)cc2C1=O [CMP235] | Inact. (Inact.(<6)) | –
CC(=O)N[C@@H](CO)C(=O)N[C@@H](C)C(=O)N[C@H](C(=O)N[C@@H](CC(C)C)C(=O)N[C@H](C=O)Cc1ccccc1)C(C)C [CMP215] (Ac-SAVLF-aldehyde) | Inact. (Inact.(<6)) | –

SMILES | Inact.(<6)/Act.(>=6) [1, 4] | also measured
O=C(Oc1cncc(Br)c1)c1ccco1 [CMP276] | Act. (Act.(>=6)) | –
COc1cc(CN2CCN(S(=O)(=O)c3ccc4c(c3)C(=O)C(=O)N4)CC2)cc(OC)c1OC [CMP236] | Inact. (Inact.(<6)) | –
O=C(Oc1cncc(Cl)c1)c1ccc(-c2ccc(Cl)cc2)o1 [CMP277] | Act. (Act.(>=6)) | –
CN1C(=O)C(=O)c2cc(S(=O)(=O)N3CCN(CCc4ccccc4)CC3)ccc21 [CMP244] | Inact. (Inact.(<6)) | –
CC1=CC[C@]2(C)CC[C@]3(C)C4=CC=C5C(=CC(=O)C(O)=C5C)[C@]4(C)CC[C@@]3(C)[C@@H]2C1 [CMP200] | Inact. (Inact.(<6)) | –
O=C(Oc1cncc(Cl)c1)c1cccc([N+](=O)[O-])c1 [CMP275] | Act. (Act.(>=6)) | –
CN1CCN(S(=O)(=O)c2ccc3c(c2)C(=O)C(=O)N3Cc2ccccc2)CC1 [CMP242] | Inact. (Inact.(<6)) | –
CC(C)(C)NC(=O)C(c1ccsc1)N(C(=O)Cn1nnc2ccccc21)c1ccc(NC(=O)C2CC2)cc1 (centres unmarked) [CMP191] | Inact. (Inact.(<6)) | –
CC(C)COC(=O)Nc1ccc(N(Cc2ccsc2)C(=O)Cn2nnc3ccccc32)cc1 [CMP199] | Inact. (Inact.(<6)) | –
O=C(Oc1cncc(Cl)c1)c1ccncc1 [CMP167] | Act. (Act.(>=6)) | –
O=C(Cn1nnc2ccccc21)N(Cc1ccsc1)c1ccc(-c2ccncc2)cc1 [CMP226] | Inact. (Inact.(<6)) | –
CCN(CC)c1ccc(C(=O)On2nnc3ccccc32)cc1 [CMP164] | Inact. (Inact.(<6)) | –
O=C(Nc1ccc(Cl)cc1)c1ccc(CN2C(=O)C(=O)c3cc(I)ccc32)s1 [CMP99] | – | SI*pIC50 [2]: 5.052
CC(C)(C)NC(=O)C(c1cccnc1)N(C(=O)c1ccc(Cl)o1)c1ccc(C(C)(C)C)cc1 (centres unmarked) [CMP201] | Inact. (Inact.(<6)) | –
CC(C)(C)NC(=O)C(c1cccnc1)N(C(=O)c1ncco1)c1ccc(C(C)(C)C)cc1 (centres unmarked) [CMP202] | Inact. (Inact.(<6)) | –
O=C(Oc1cncc(Cl)c1)c1ccccc1[N+](=O)[O-] [CMP279] | Act. (Act.(>=6)) | –
COc1cc(/C=C/C(=O)/C=C(O)/C=C/c2ccc(O)c(OC)c2)ccc1O [CMP156] | Inact. (Inact.(<6)) | –
COC(=O)[C@]1(C)CC[C@]2(C)CC[C@]3(C)C4=CC=C5C(=CC(=O)C(O)=C5C)[C@]4(C)CC[C@@]3(C)[C@@H]2C1 [CMP128] | – | Inact.(<6)/Act.(>=6) [1]: Inact. (key: Inact.(<6); Act.(>=6))
CC(C)(C)NC(=O)C(c1ccnnc1)N(C(=O)c1ccco1)c1ccc(C(C)(C)C)cc1 (centres unmarked) [CMP203] | Inact. (Inact.(<6)) | –
Cc1cc(S(=O)(=O)c2c([N+](=O)[O-])cc(C(F)(F)F)cc2[N+](=O)[O-])c(Cl)cc1Cl [CMP288] | Act. (Act.(>=6)) | –
CC(=O)N[C@@H](CC(N)=O)C(=O)N[C@H](C(=O)N[C@@H](CC1CCCCC1)C(=O)N[C@H](C=O)Cc1c[nH]cn1)C(C)C [CMP217] (Ac-NV[Cha]H-aldehyde) | Inact. (Inact.(<6)) | –
O=C(Oc1cncc(Cl)c1)c1cccnc1 [CMP172] | Act. (Act.(>=6)) | –
O=C[C@H](Cc1cnc[nH]1)NC[C@@H]1C[C@H]2CCCC[C@@H]2CN1C(=O)c1ccc(Br)cc1 [CMP256] | Inact. (Inact.(<6)) | –
CC(C)c1cc2c(cc1O)[C@@]1(C)CCC[C@@](C)(C=O)[C@@H]1CC2 [CMP208] | Inact. (Inact.(<6)) | –
C=C1CC[C@H]2[C@](C)(CO)CCC[C@]2(C)[C@H]1CC/C(C)=C\CO [CMP209] | Inact. (Inact.(<6)) | –
CC(=O)N[C@@H](CO)C(=O)N[C@H](C(=O)N[C@@H](CC1CCCCC1)C(=O)N[C@H](C=O)Cc1c[nH]cn1)C(C)C [CMP218] (Ac-SV[Cha]H-aldehyde) | Act. (Act.(>=6)) | –

Reference: paper PMC8611036, “An integrated method for optimized identification of effective natural inhibitors against SARS-CoV-2 3CLpro” (Scientific Reports, 2021)
